This is an account of results in patent publication US10087191B2, “Piperidine derivative and preparation method and pharmaceutical use thereof” (Jiangsu Hengrui Medicine Co., Ltd., priority 2015, dated 2018).

Each structure is given as a SMILES string.

The target of series [1] is estrogen receptor (ER) (Homo sapiens (Human), UniProt P03372). Kind of series: Inhibition of the binding of estrogen (E) to estrogen receptor (ER), MCF-7/ERE-luciferase reporter cells. In kind it is cell-based. As to conditions: MCF-7/ERE-luciferase cells, 0.1 nM estradiol, 24 hours; read-out: IC50 value of inhibition effect on the binding of E to ER.
estrogen receptor (ER), sequence (P03372 whole entry): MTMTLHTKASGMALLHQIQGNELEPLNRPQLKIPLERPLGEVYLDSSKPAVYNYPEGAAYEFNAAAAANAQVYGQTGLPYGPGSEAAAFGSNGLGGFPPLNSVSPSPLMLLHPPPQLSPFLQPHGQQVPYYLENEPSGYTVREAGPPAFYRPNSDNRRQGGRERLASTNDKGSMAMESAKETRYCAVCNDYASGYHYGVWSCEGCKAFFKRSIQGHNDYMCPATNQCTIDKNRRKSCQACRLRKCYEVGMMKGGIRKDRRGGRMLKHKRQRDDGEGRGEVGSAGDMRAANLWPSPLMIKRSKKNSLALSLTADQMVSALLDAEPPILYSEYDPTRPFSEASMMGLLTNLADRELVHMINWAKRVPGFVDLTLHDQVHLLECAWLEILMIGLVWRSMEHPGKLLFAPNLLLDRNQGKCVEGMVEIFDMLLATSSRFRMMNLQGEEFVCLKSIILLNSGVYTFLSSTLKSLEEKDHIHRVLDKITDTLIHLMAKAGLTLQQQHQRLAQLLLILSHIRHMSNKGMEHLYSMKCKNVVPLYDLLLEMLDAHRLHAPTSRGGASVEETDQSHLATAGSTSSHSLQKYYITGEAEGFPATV
Series [2] has as its system MCF7 cells. Kind of series: Inhibition of the proliferation of MCF7 cells (Cell Titer-Glo). In kind it is cell-based. As to conditions: Homo sapiens, MCF-7 cells, 72 hours, read-out: IC50 value of inhibition effect on the proliferation of MCF7 cells. The essentials:
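Viability by Cell Titer-Glo luminescence; IC50 from signal versus log concentration.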

The target of series [3] is ERα (Homo sapiens (Human), UniProt P03372). Kind of series: Degradation effect on ERα in MCF-7 cells (ERα Duoset ELISA). The settings on record: MCF-7 cells; read-out: IC50 value of the degradation effect on ERα. In kind it is cell-based. As for the experimental part: In order to determine the degradation effect on ER induced by the compounds of the present invention, the following method was used to determine the degradation effect of the compounds of the present invention on ER.
ERα, sequence (P03372 whole entry): as above
MCF-7 cell line (TChu 74, Cell Bank of Chinese Academy of Sciences typical culture preservation Committee)
ERα Duoset Kit (#DYC5715E, R&D System)
MCF-7 cells were incubated in DMEM/F-12 medium containing 10% FBS.
On the first day of the experiment, MCF-7 cells were resuspended in DMEM/F-12 medium containing 10% FBS treated by activated carbon, then inoculated into a 48-well plate with a density of 50,000 cells/well and incubated for 22-24 hours.
On the second day of the experiment, the test compound was diluted with medium and added to a 48-well plate. The ERα-capture antibody was diluted to 1 μg/ml with PBS, and added to a 96-well plate at 100 μl/well. The plate was sealed and coated overnight at room temperature.
On the third day of the experiment, the coated 96-well plate was washed twice with PBS, added with a sealing solution (1% BSA in PBS) at 110 μl/well and sealed for 1 hour at room temperature. The 48-well plate was washed once with PBS, and the residual liquid was removed. Then, 60 μl of lysis (6 M urea, 1 mM EDTA, 0.5% Triton X-100, 1 mM PMSF, Protease Inhibitor cocktail) was added to each well. After lysis on ice for 15 minutes, the diluent (1 mM EDTA, 0.5% TritonX-100 dissolved in PBS) was added. The cell-diluted lysate was transferred to a 96-well plate at 100 μl/well, then the plate was incubated at room temperature for 2 hours. The diluted primary antibody was added after the plate was washed 4 times with a washing liquid (PBST). After incubation for 1 hour, the 96-well plate was washed 4 times, and the second antibody was added, then the plate was incubated for 30 minutes. After the plate was washed with a washing liquid, TMB chromogenic solution was added and incubated for 15 minutes. The reaction was stopped by the addition of 1 M H2SO4, then the light absorption at 450 nm was read.
(In general: In an ELISA, binding on a coated surface is turned into a signal by an enzyme label.)

A short description of series [4]: Pharmacokinetics assay in BALB/C nude mice after intragastrical administration. In kind it is in vivo. As to conditions: female, mouse, plasma, po, 3 mg/kg; for AUC: read-out: Area Under Curve AUC; for CL/F: read-out: Clearance CL/F (converted); for half-life: read-out: Half-Life t½ (converted); for MRT: read-out: Mean Residence Time MRT; for Cmax: read-out: Plasma Conc. Cmax. As for the experimental part: BALB/C nude mice were used as test animals. The drug concentration in plasma at different time points was determined by LC/MS/MS after intragastrical administration of the compounds of Examples 10, 14, 20, 21, 57, 68, 71, 73, 74, 76 and 89 to BALB/C nude mice. The pharmacokinetic behavior of the compounds of the present invention was studied and evaluated in BALB/C nude mice.
Ninety-nine (99) female BALB/C nude mice were equally divided into 11 groups, which were purchased from SINO-BRITSH SIPPR/BK LAB. ANIMAL LTD., CO, with Certificate No.: SCXK (Shanghai) 2008-0016.
The appropriate amount of each test compound was weighed, and successively added with 9% PEG400+0.5% tween 80+0.5% PVP+90% aqueous solution of 0.5% CMC.
After an overnight fast, 99 female BALB/C nude mice were equally divided into 11 groups, and administered the test compounds intragastrically at an administration volume of 0.2 mL/10 g.
Blood (0.1 mL) was sampled (3 mice at each time point) at 0.5, 1.0, 2.0, 4.0, 6.0, 8.0, 11.0 and 24.0 hours after administration. The samples were stored in heparinized test tubes, and centrifuged for 10 minutes at 3,500 rpm to separate the blood plasma. The plasma samples were stored at −20° C. The plasma concentration of the test compounds in BALB/C nude mice after intragastrical administration was determined by LC/MS/MS.
Pharmacokinetic parameters of the compounds of Examples 10, 14, 20, 21, 57, 68, 71, 73, 74, 76 and 89 of the present invention are shown below.

In the case of `C[C@@H]1Cc2cc(-c3cnn(C(F)F)c3)ccc2[C@@H](c2c(F)cc(/C=C/C(=O)O)cc2F)N1CC(C)(C)F` [Example 14, (E)-3-(4-((1S,3R)-6-(1-(difluoromethyl)-1H-pyrazol-4-yl)-2-(2-fluoro-2-methylpropyl)-3-methyl-1,2,3,4-tetrahydroisoquinolin-1-yl)-3,5-difluorophenyl)acrylic acid], the IC50 in series [1] was 0.29 nM. In series [2], the IC50 was 0.06 nM. Also, in series [3], the DC50 came out at 0.64 nM. In addition, in series [4], the AUC turned out to be 32700 ng·h/mL, the CL/F is 25.5 mL/min/kg, the half-life is 4.74 h and the MRT came out at 5.93 h. Moreover, in series [4], the Cmax came to 6750 ng/mL.
In the case of `C[C@@H]1Cc2cc(-c3cnn(C)c3)ccc2[C@@H](c2c(F)cc(/C=C/C(=O)O)cc2F)N1CC(C)(C)F` [Example 57, (E)-3-(3,5-difluoro-4-((1S,3R)-2-(2-fluoro-2-methylpropyl)-3-methyl-6-(1-methyl-1H-pyrazol-4-yl)-1,2,3,4-tetrahydroisoquinolin-1-yl)phenyl)acrylic acid], the IC50 in series [1] worked out at 0.33 nM. The IC50 in series [2] stood at 0.01 nM. Also, the DC50 in series [3] amounted to 0.1 nM. Also, in series [4], the exposure (AUC) is 15100 ng·h/mL, the CL/F is 55.2 mL/min/kg, the half-life was 2.78 h and the MRT is 3.23 h. Also, the Cmax in series [4] worked out at 5070 ng/mL.
On to `C[C@@H]1Cc2c(oc3ccccc23)[C@@H](c2c(F)cc(/C=C/C(=O)O)cc2F)N1CC(C)(C)F` [Example 68, (E)-3-(3,5-difluoro-4-((1R,3R)-2-(2-fluoro-2-methylpropyl)-3-methyl-1,2,3,4-tetrahydrobenzofuro[2,3-c]pyridin-1-yl)phenyl)acrylic acid], for which the IC50 in series [1] is 0.31 nM. For the same molecule, the IC50 in series [2] was found to be 0.04 nM. Further, the DC50 in series [3] amounted to 0.11 nM. In addition, in series [4], the exposure (AUC) is 13200 ng·h/mL, the CL/F was 105 mL/min/kg, the half-life was 2.32 h and the MRT turned out to be 3.7 h. For the same molecule, the Cmax in series [4] turned out to be 3420 ng/mL.
For `C[C@@H]1Cc2cc3c(cc2[C@@H](c2c(F)cc(/C=C/C(=O)O)cc2F)N1CC(C)(C)F)OCO3` [Example 71, (E)-3-(3,5-difluoro-4-((5S,7R)-6-(2-fluoro-2-methylpropyl)-7-methyl-5,6,7,8-tetrahydro-[1,3]dioxolo[4,5-g]isoquinolin-5-yl)phenyl)acrylic acid], the IC50 in series [1] was 0.74 nM. Moreover, the IC50 in series [2] was 0.12 nM. The DC50 in series [3] amounted to 0.06 nM. Also, in series [4], the AUC was 8810 ng·h/mL, the CL/F was 158 mL/min/kg, the half-life is 1.59 h and the MRT was 2.62 h. Further, the Cmax in series [4] turned out to be 4130 ng/mL.
As to `C[C@@H]1Cc2c(oc3cccc(F)c23)[C@@H](c2c(F)cc(/C=C/C(=O)O)cc2F)N1CC(C)(C)F` [Example 74, (E)-3-(3,5-difluoro-4-((1R,3R)-5-fluoro-2-(2-fluoro-2-methylpropyl)-3-methyl-1,2,3,4-tetrahydrobenzofuro[2,3-c]pyridin-1-yl)phenyl)acrylic acid], the IC50 in series [1] amounted to 0.21 nM. Also, in series [2], the IC50 worked out at 0.09 nM. In addition, in series [3], the DC50 was found to be 1.35 nM. Moreover, in series [4], the AUC was 5850 ng·h/mL, the CL/F is 142 mL/min/kg, the half-life was 3.16 h and the mean residence time (MRT) came out at 2.41 h. For the same molecule, the Cmax in series [4] is 2530 ng/mL.
Turning to `CC1Cc2c(oc3ccc(-c4cnn(C)c4)cc23)C(c2c(F)cc(/C=C/C(=O)O)cc2F)N1CC(C)(C)F` [Example 89, (E)-3-(3,5-difluoro-4-((1R,3R/1S,3S)-2-(2-fluoro-2-methylpropyl)-3-methyl-6-(1-methyl-1H-pyrazol-4-yl)-1,2,3,4-tetrahydrobenzofuro[2,3-c]pyridin-1-yl)phenyl)acrylic acid], in series [1], the IC50 was 0.21 nM. The IC50 in series [2] amounted to 0.08 nM. Besides, the DC50 in series [3] was determined as 0.31 nM. Besides, in series [4], the AUC was 7710 ng·h/mL, the CL/F is 108 mL/min/kg, the half-life was 3.97 h and the mean residence time MRT worked out at 5.69 h. For the same molecule, in series [4], the Cmax is 1270 ng/mL.
For the molecule `CCn1cc(-c2ccc3oc4c(c3c2)C[C@@H](C)N(CC(C)(C)F)[C@@H]4c2c(F)cc(/C=C/C(=O)O)cc2F)cn1` [Example 97, (E)-3-(4-((1R,3R)-6-(1-ethyl-1H-pyrazol-4-yl)-2-(2-fluoro-2-methylpropyl)-3-methyl-1,2,3,4-tetrahydrobenzofuro[2,3-c]pyridin-1-yl)-3,5-difluorophenyl)acrylic acid], the IC50 is 0.24 nM in series [1] and 0.2 nM in series [2]. Further, in series [3], the DC50 worked out at 6.11 nM.

By AUC is commonly meant the area under the concentration-time curve, a measure of exposure. One may read the half-life as the time in which the quantity being followed falls by half. What is called MRT is a mean duration of stay, worked out from the concentration-time curve. By Cmax is commonly meant the peak of the concentration-time curve.
